From PubChem BioAssay (NCI) come the findings set out here.

Common to all, as to experiment: NCI-60 cell line screen, 48 h
Experiment [1] deals with HCC-2998 colon.
Experiment [2] concerns CAKI-1 renal.
Experiment [3] deals with UACC-257 melanoma.
The test system of experiment [4] is KM12 colon.
For experiment [5], the system named is HCT-116 colon.
Experiment [6] relates to SK-MEL-2 melanoma.
Experiment [7] concerns M14 melanoma.
In experiment [8] the test system is SF-539 CNS.
For experiment [9], the system named is 786-0 renal.
Experiment [10] has as its system ACHN renal.
The subject of experiment [11] is SK-MEL-5 melanoma.
Experiment [12] has as its system HT29 colon.
The test system of experiment [13] is SW-620 colon.
Experiment [14] relates to NCI-H23 lung.
The test system of experiment [15] is A498 renal.
Experiment [16] deals with RXF 393 renal.

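96-well plates; 48 h exposure; 5 concentrations. Endpoints by linear interpolation between flanking doses. Not reached: highest tested concentration assigned. Definition used: TGI = concentration required for complete inhibition of growth.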 Some results are limits rather than exact numbers.

As to `CCCCC/C=C1\CCC(CN(C)C)C1=O` (stereo not drawn), the TGI amounted to 31 µM in [1]; 18.4 µM in experiment [2]; 32.2 µM in experiment [3]; 17 µM in [4]; 25 µM in experiment [5]; 34.7 µM in experiment [6]. The TGI in [7] is 28.1 µM; in experiment [8], 24.1 µM; in experiment [9], 7.02 µM; in experiment [10], 27.3 µM; in [11] it was 34.3 µM; in experiment [12], 62.3 µM. Further, the TGI in experiment [13] amounted to 11.7 µM; in [14], 34.6 µM.

Regarding `COc1cccc(C2CC23C(=O)NC(=O)NC3=O)c1` (stereo not drawn), the TGI in [1], in experiment [15], in experiment [2], in [3], in [4] and in [5] was more than 100 µM in each case. For the same molecule, the TGI in [6], in [7], in experiment [8], in [9], in experiment [10] and in [11] was more than 100 µM each time. The TGI in experiment [12], in experiment [13] and in experiment [14] was more than 100 µM in each case.

`CCOC(=O)C1SC(=Nc2ccccc2)N=C1C` (stereo not drawn): the TGI in [1], in [15], in experiment [3], in experiment [16], in [4] and in experiment [5] was more than 100 µM throughout. Besides, the TGI in experiment [6], in experiment [8], in experiment [9], in experiment [10], in experiment [12] and in experiment [13] was more than 100 µM each time. In experiment [14], the TGI was more than 100 µM.

As to `CC(C)=CC1CC(=[N+]=[N-])C(=O)C1(C)C` (stereo not drawn), the TGI in experiment [1] is more than 100 µM; in experiment [15], more than 100 µM; in experiment [2], more than 100 µM; in [3] it was more than 100 µM; in experiment [16] it was more than 31.6 µM; in experiment [4], more than 100 µM. Besides, the TGI in [5], in experiment [6], in experiment [7], in experiment [8], in experiment [9] and in experiment [10] was more than 100 µM throughout. The TGI in experiment [11] is more than 100 µM; in experiment [12], more than 31.6 µM; in experiment [13], more than 100 µM; in experiment [14] it was more than 100 µM.

As to `CS(=O)(=O)c1ccc(-c2cc(-c3ccc(S(C)(=O)=O)cc3)[n+](-c3cc(-c4ccccc4)c([O-])c(-c4ccccc4)c3)c(-c3ccc(S(C)(=O)=O)cc3)c2)cc1`, the TGI in experiment [1], in [15], in [2], in [3], in experiment [16] and in experiment [4] was more than 100 µM each time. Further, the TGI in experiment [5], in [6], in experiment [7], in [8], in [9] and in experiment [10] was more than 100 µM in each case. Also, the TGI in experiment [12], in [13] and in [14] was more than 100 µM throughout.

With `C[N+](C)(C)CC1CCC/C1=N\OC(=O)c1ccccc1` (stereo not drawn), the TGI in experiment [15], in experiment [3], in [16], in experiment [4], in experiment [5] and in experiment [6] was more than 100 µM each time. Further, the TGI in [7], in experiment [8], in [9], in [10], in [11] and in experiment [12] was more than 100 µM each time. The TGI in [13] and in experiment [14] was more than 100 µM in each case.

In the case of `COc1ccc(C(C#N)NNC(=O)Cc2ccccc2)cc1OC` (stereo not drawn), the TGI in experiment [2], in [3], in experiment [16], in experiment [4], in experiment [5] and in experiment [6] was more than 100 µM throughout. Moreover, the TGI in experiment [7], in [8], in [9], in experiment [10], in experiment [11] and in experiment [12] was more than 100 µM throughout. In addition, the TGI in experiment [13] and in experiment [14] was more than 100 µM each time.

`O=S(=O)(c1ccccc1)N1N=C2c3ccccc3CCC[C@H]2C1c1ccccc1` (stereo partly drawn): the TGI in [1], in [15], in [2], in experiment [3], in experiment [16] and in experiment [4] was more than 100 µM throughout. In addition, the TGI in experiment [5], in [6], in experiment [7], in experiment [8], in experiment [9] and in experiment [10] was more than 100 µM in each case. Further, the TGI in experiment [11], in experiment [12], in experiment [13] and in [14] was more than 100 µM each time.

Regarding `O=C(CSc1c2ccccc2nc2ccccc12)Nc1ccccc1-c1ccccc1NC(=O)CSc1c2ccccc2nc2ccccc12`, the TGI in [1] is 34.5 µM; in experiment [15], more than 93.4 µM; in experiment [2], more than 73.8 µM; in experiment [3], 75.8 µM; in [16] it was 52 µM; in experiment [4], more than 62 µM. Further, the TGI in experiment [5] was more than 100 µM; in [6], 45.3 µM; in [7], more than 73.9 µM; in [8], more than 64.7 µM; in experiment [9] it was 69.4 µM; in [10], more than 100 µM. The TGI in experiment [11] is 28.3 µM; in [12] it was more than 100 µM; in experiment [13], more than 100 µM; in [14] it was 61.6 µM.
